Maximum % inhibition and IC50 data for eleven molecules are collected here from patent publication US12209144B2, “Cyclic peptides as proprotein convertase subtilisin/kexin type 9 (PCSK9) inhibitors for the treatment of metabolic disorders” (Novartis AG, priority 2018, dated 2025).

SMILES strings stand for the structures. Bridge positions count the residues as written; N and C are the ends. Square brackets hold non-standard residues; d marks the D form. Peptide text beside a SMILES is read from it. Phe(3,4-Cl2) = N[C@@H](Cc1ccc(Cl)c(Cl)c1)C(=O)O; Bip = N[C@@H](Cc1ccc(-c2ccccc2)cc1)C(=O)O; Phe(3-F) = N[C@@H](Cc1cccc(F)c1)C(=O)O; NMeF = CN[C@@H](Cc1ccccc1)C(=O)O; NMeA = CN[C@@H](C)C(=O)O

Chain of human PCSK9 (Q8NBP7 153-692): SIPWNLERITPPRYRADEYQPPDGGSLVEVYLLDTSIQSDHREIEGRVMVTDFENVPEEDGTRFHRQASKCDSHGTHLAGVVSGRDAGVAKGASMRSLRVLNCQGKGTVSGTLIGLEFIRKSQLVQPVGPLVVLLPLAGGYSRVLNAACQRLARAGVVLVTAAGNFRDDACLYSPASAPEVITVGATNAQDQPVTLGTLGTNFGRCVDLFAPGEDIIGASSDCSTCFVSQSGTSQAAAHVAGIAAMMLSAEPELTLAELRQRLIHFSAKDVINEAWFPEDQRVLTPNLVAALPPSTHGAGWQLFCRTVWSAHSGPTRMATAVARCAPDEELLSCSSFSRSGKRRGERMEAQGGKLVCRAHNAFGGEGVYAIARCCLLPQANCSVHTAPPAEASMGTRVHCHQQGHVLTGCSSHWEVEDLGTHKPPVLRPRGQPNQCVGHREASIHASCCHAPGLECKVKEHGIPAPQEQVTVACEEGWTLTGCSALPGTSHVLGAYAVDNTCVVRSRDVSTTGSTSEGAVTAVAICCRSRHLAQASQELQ
Chain of human PCSK9 (Q8NBP7 31-152 partner limits assumed): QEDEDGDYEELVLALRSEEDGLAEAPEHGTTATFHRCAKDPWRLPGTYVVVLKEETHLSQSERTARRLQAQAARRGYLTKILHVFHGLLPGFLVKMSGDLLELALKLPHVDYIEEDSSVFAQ

One test addresses human PCSK9 (Homo sapiens, UniProt Q8NBP7). The experiment in a line: PCSK9 ligand binding assay (TR-FRET): interference with binding of human PCSK9 to human LDLR. The conditions noted are these: PCSK9 FRET assay, efficacy (Amax); 0% = DMSO, 100% = 1 uM unlabeled human PCSK9. As for the experimental part: The activity of cyclic polypeptides according to the disclosure as PCSK9 can be assessed using a time resolved fluorescence resonance energy transfer (TR-FRET) assay. This time resolved fluorescence resonance energy transfer (TR-FRET) assay measures the ability of a cyclic polypeptides of the disclosure to interfere with the binding of human PCSK9 to human LDLR, providing measures of both potency (IC50) and efficacy (Amax).
Solutions of varying concentrations are prepared by diluting a cyclic polypeptide of the disclosure in dimethylsulfoxide (DMSO) and the resulting solutions are pipetted into a plate. DMSO is used as a negative control. An intermediate plate is prepared in by transferring a known amount of each polypeptide solution and of the control from the compound plate into a corresponding well containing assay buffer and mixing thoroughly. A third plate is then prepared to be used for the assay by adding Human PCSK9 Alexa Fluor 647, followed by a known amount of each solution from the intermediate plate. Unlabeled human PCSK9 in assay buffer containing DMSO is used as a positive control for the assay. Following incubation, Human LDLR extracellular domain-Europium Kryptate is added to each well of the assay plate and the resulting mixture is incubated for an additional period of time. The TR-FRET signal is measured and the FRET ratio (FRET/Europium) is used to calculate the IC50 and Amax of the cyclic polypeptides.
The PCSK9 binding of the cyclic polypeptides of the disclosure were measured using a time resolved fluorescence resonance energy transfer (TR-FRET) assay. This time resolved fluorescence resonance energy transfer (TR-FRET) assay measures the ability of a cyclic polypeptide of the disclosure to interfere with the binding of human PCSK9 to human LDLR, providing measures of both potency (IC50) and efficacy (Amax).
• Human PCSK9 • Human PCSK9 Alexa Fluor 647 • Human LDLR extracellular domain-Europium Kryptate • Proxi plate-low volume assay plate (PerkinElmer #6008280) • Greiner V-bottom (Greiner BioOne #781280) • Assay Buffer • 20 mM HEPES, pH 7.5 • 150 mM NaCl • 1 mM CaCl2 • 0.01% v/v Tween20 • 0.01% w/v BSA
A master compound plate was prepared in a Greiner V bottom plate by diluting cyclic polypeptides of the disclosure in dimethylsulfoxide to the correct concentration for the desired top concentration based on the desired final concentration: for a 30 uM final concentration the master plate concentration is 1.5 mM (68 uL DMSO+12 uL 10 mM of a cyclic polypeptide of the disclosure), for a 10 uM final concentration the master plate concentration is 0.5 mM (76 uL DMSO+4 uL 10 mM of a cyclic polypeptide of the disclosure), for a 3 uM final concentration the master plate concentration is 150 uM (69 uL DMSO+1 uL 10 mM a cyclic peptide of the disclosure). These solutions were pipetted into columns 1 and 11 of the compound plate. Threefold serial dilutions were generated in columns 2-10 and 12-20 of the compound plate by transferring 10 uL into 20 μL of DMSO. Columns 21 and 22 of the compound plate were negative controls containing DMSO alone.
An intermediate plate was generated in a Greiner V bottom plate by transferring 8 uL from each well of the master plate into a corresponding well containing 92 μL of assay buffer and mixing thoroughly.
A Proxi plate-low volume assay plate was used for the assay. To all wells of the plate was added 10 μL of 16 nM Human PCSK9 Alexa Fluor 647, followed by 5 uL from the intermediate plate. […] Following a 30 minute incubation, 5 μL of 4 nM Human LDLR extracellular domain-Europium Kryptate was added and the mixture was incubated for an additional 2 hours.
The TR-FRET signal was measured on an EnVision or PheraStar instrument with a […] delay, 330 nm excitation and 665 nm emission (FRET), and 330 nm excitation and 615 nm (Europium). The FRET ratio (FRET/Europium) was used for calculations. […]
The molecule `CC(C)[C@@H]1NC(=O)[C@H](Cc2ccccc2)NC(=O)CSC[C@@H](C(=O)NCC(N)=O)NC(=O)[C@@H]2CCCN2C(=O)[C@H](CO)NC(=O)[C@H](CCC(=O)O)NC(=O)[C@H](C)N(C)C(=O)[C@H](Cc2ccc(-c3ccccc3)cc2)NC(=O)[C@H](Cc2ccccc2)N(C)C(=O)[C@H](CO)NC(=O)[C@H]([C@@H](C)O)NC(=O)[C@H]([C@@H](C)O)NC(=O)[C@H](CO)NC1=O` [Example 1-12, Ac*-F-V-S-T-T-S-(N-Me)F-B-(N-Me)A-E-S-P-C*-G-NH2] ({CH2CO}-FVSTTS[NMeF][Bip][NMeA]ESPCG-NH2; thioether N-13) registered a Maximum % inhibition of 87%.
With `CC(C)[C@@H]1NC(=O)[C@H](Cc2ccccc2)NC(=O)CSC[C@@H](C(=O)NCC(N)=O)NC(=O)[C@@H]2CCCN2C(=O)[C@H](CO)NC(=O)[C@H](CCC(=O)O)NC(=O)[C@H](C)N(C)C(=O)[C@H](Cc2ccc(-c3ccccc3)cc2)NC(=O)[C@H](Cc2ccccc2)N(C)C(=O)[C@H](Cc2ccc(-c3ccccc3)cc2)NC(=O)[C@H]([C@@H](C)O)NC(=O)[C@H]([C@@H](C)O)NC(=O)[C@H](CO)NC1=O` [Example 1-13, Ac*-F-V-S-T-T-B-(N-Me)F-B-(N-Me)A-E-S-P-C*-G-NH2] ({CH2CO}-FVSTT[Bip][NMeF][Bip][NMeA]ESPCG-NH2; thioether N-13), the Maximum % inhibition was 86%.
`CC(C)[C@@H]1NC(=O)[C@H](Cc2ccccc2)NC(=O)CSC[C@@H](C(=O)NCC(N)=O)NC(=O)[C@@H]2CCCN2C(=O)[C@H](CCCNC(=N)N)NC(=O)[C@H](CC(=O)O)NC(=O)[C@H](C)N(C)C(=O)[C@H](Cc2ccc(Cl)c(Cl)c2)NC(=O)[C@H](C)N(C)C(=O)[C@H](Cc2ccc(-c3ccccc3)cc2)NC(=O)[C@H]([C@@H](C)O)NC(=O)[C@H]([C@@H](C)O)NC(=O)[C@H](CO)NC1=O` [Example 1-14, Ac*-F-V-S-T-T-B-(N-Me)A-(3,4-diCl)F-(N-Me)A-D-R-P-C*-G-NH2] ({CH2CO}-FVSTT[Bip][NMeA][Phe(3,4-Cl2)][NMeA]DRPCG-NH2; thioether N-13) yielded a Maximum % inhibition of 49%.
The same measure, in the same setting: the value for `CC(C)[C@@H]1NC(=O)[C@H](Cc2ccccc2)NC(=O)CSC[C@@H](C(=O)NCC(N)=O)NC(=O)[C@@H]2CCCN2C(=O)[C@H](CCCNC(=N)N)NC(=O)[C@H](CC(=O)O)NC(=O)[C@H](C)N(C)C(=O)[C@H](Cc2cccc(F)c2)NC(=O)[C@H](C)N(C)C(=O)[C@H](Cc2ccc(-c3ccccc3)cc2)NC(=O)[C@H]([C@@H](C)O)NC(=O)[C@H]([C@@H](C)O)NC(=O)[C@H](CO)NC1=O` [Example 1-15, Ac*-F-V-S-T-T-B-(N-Me)A-(3-F)F-(N-Me)A-D-R-P-C*-G-NH2] ({CH2CO}-FVSTT[Bip][NMeA][Phe(3-F)][NMeA]DRPCG-NH2; thioether N-13) was 53%.
`CC(C)[C@@H]1NC(=O)[C@H](Cc2ccccc2)NC(=O)CSC[C@@H](C(=O)NCC(N)=O)NC(=O)[C@@H]2CCCN2C(=O)[C@H](C)NC(=O)[C@H](CCC(=O)O)NC(=O)[C@H](C)N(C)C(=O)[C@H](Cc2ccc(-c3ccccc3)cc2)NC(=O)[C@H](Cc2ccccc2)N(C)C(=O)[C@H](C)NC(=O)[C@H]([C@@H](C)O)NC(=O)[C@H]([C@@H](C)O)NC(=O)[C@H](CC(=O)O)NC1=O` [Example 1-16, Ac*-F-V-D-T-T-A-(N-Me)F-B-(N-Me)A-E-A-P-C*-G-NH2] ({CH2CO}-FVDTTA[NMeF][Bip][NMeA]EAPCG-NH2; thioether N-13) registered a Maximum % inhibition of 91%.
On the same count and under the same terms, the value for `CC(C)[C@@H]1NC(=O)[C@H](Cc2ccccc2)NC(=O)CSC[C@@H](C(=O)NCC(N)=O)NC(=O)[C@@H]2CCCN2C(=O)[C@H](CO)NC(=O)[C@H](CCC(=O)O)NC(=O)[C@H](C)N(C)C(=O)[C@H](Cc2ccc(-c3ccccc3)cc2)NC(=O)[C@H](C)N(C)C(=O)[C@H](Cc2ccccc2)NC(=O)[C@H]([C@@H](C)O)NC(=O)[C@H]([C@@H](C)O)NC(=O)[C@H](CC(=O)O)NC1=O` [Example 1-17, Ac*-F-V-D-T-T-F-(N-Me)A-B-(N-Me)A-E-S-P-C*-G-NH2] ({CH2CO}-FVDTTF[NMeA][Bip][NMeA]ESPCG-NH2; thioether N-13) was 91%; that for `CC(C)[C@@H]1NC(=O)[C@H](Cc2ccccc2)NC(=O)CSC[C@@H](C(=O)NCC(N)=O)NC(=O)[C@@H]2CCCN2C(=O)[C@H](C)NC(=O)[C@H](CCC(N)=O)NC(=O)[C@H](C)N(C)C(=O)[C@H](Cc2ccc(-c3ccccc3)cc2)NC(=O)[C@H](Cc2ccccc2)N(C)C(=O)[C@H](C)NC(=O)[C@H]([C@@H](C)O)NC(=O)[C@H]([C@@H](C)O)NC(=O)[C@H](CC(N)=O)NC1=O` [Example 1-18, Ac*-F-V-N-T-T-A-(N-Me)F-B-(N-Me)A-Q-A-P-C*-G-NH2] ({CH2CO}-FVNTTA[NMeF][Bip][NMeA]QAPCG-NH2; thioether N-13) was 53%; that for `CC(C)[C@@H]1NC(=O)[C@H](Cc2ccccc2)NC(=O)CSC[C@@H](C(=O)NCC(N)=O)NC(=O)[C@@H]2CCCN2C(=O)[C@H](CCCNC(=N)N)NC(=O)[C@H](CC(=O)O)NC(=O)[C@H](C)N(C)C(=O)[C@H](Cc2ccc(-c3ccccc3)cc2)NC(=O)[C@H](C)N(C)C(=O)[C@H](Cc2ccc(-c3ccccc3)cc2)NC(=O)[C@H]([C@@H](C)O)NC(=O)[C@H]([C@@H](C)O)NC(=O)[C@@H]2CCCN2C1=O` [Example 1-19, Ac*-F-V-P-T-T-B-(N-Me)A-B-(N-Me)A-D-R-P-C*-G-NH2] ({CH2CO}-FVPTT[Bip][NMeA][Bip][NMeA]DRPCG-NH2; thioether N-13) was 38%.
Take `CC(C)[C@@H]1NC(=O)[C@H](Cc2ccccc2)NC(=O)CSC[C@@H](C(=O)NCC(N)=O)NC(=O)[C@@H]2CCCN2C(=O)[C@H](CO)NC(=O)[C@@H]2CCCN2C(=O)[C@H](C)N(C)C(=O)[C@H](Cc2ccc(-c3ccccc3)cc2)NC(=O)[C@H](C)N(C)C(=O)[C@H](Cc2ccc(-c3ccccc3)cc2)NC(=O)[C@H]([C@@H](C)O)NC(=O)[C@H]([C@@H](C)O)NC(=O)[C@H](CO)NC1=O` [Example 1-20, Ac*-F-V-S-T-T-B-(N-Me)A-B-(N-Me)A-P-S-P-C*-G-NH2] ({CH2CO}-FVSTT[Bip][NMeA][Bip][NMeA]PSPCG-NH2; thioether N-13): the Maximum % inhibition is given as 35%.
Still for that read-out and setting: the value for `CC(C)[C@@H]1NC(=O)[C@H](Cc2ccccc2)NC(=O)CSC[C@@H](C(=O)NCC(N)=O)NC(=O)[C@@H]2CCCN2C(=O)[C@H](C)NC(=O)[C@H](CCC(=O)O)NC(=O)[C@H](C)N(C)C(=O)[C@H](Cc2ccc(-c3ccccc3)cc2)NC(=O)[C@H](Cc2ccccc2)N(C)C(=O)[C@H](C)NC(=O)[C@H]([C@@H](C)O)NC(=O)[C@H]([C@@H](C)O)NC(=O)[C@@H]2CCCN2C1=O` [Example 1-21, Ac*-F-V-P-T-T-A-(N-Me)F-B-(N-Me)A-E-A-P-C*-G-NH2] ({CH2CO}-FVPTTA[NMeF][Bip][NMeA]EAPCG-NH2; thioether N-13) was 81%; that for `CC(C)[C@@H]1NC(=O)[C@H](Cc2ccccc2)NC(=O)CSC[C@@H](C(=O)NCC(N)=O)NC(=O)[C@@H]2CCCN2C(=O)[C@H](C)NC(=O)[C@H](CCCCN)NC(=O)[C@H](C)N(C)C(=O)[C@H](Cc2ccc(-c3ccccc3)cc2)NC(=O)[C@H](C)N(C)C(=O)[C@H](Cc2ccccc2)NC(=O)[C@H]([C@@H](C)O)NC(=O)[C@H]([C@@H](C)O)NC(=O)[C@H](C)NC1=O` [Example 1-22, Ac*-F-V-A-T-T-F-(N-Me)A-B-(N-Me)A-K-A-P-C*-G-NH2] ({CH2CO}-FVATTF[NMeA][Bip][NMeA]KAPCG-NH2; thioether N-13) was 49%.

Still in this test, the particulars now being: TR-FRET; Human PCSK9 Alexa Fluor 647 and Human LDLR extracellular domain-Europium Kryptate.
With `CC(C)[C@@H]1NC(=O)[C@H](Cc2ccccc2)NC(=O)CSC[C@@H](C(=O)NCC(N)=O)NC(=O)[C@@H]2CCCN2C(=O)[C@H](CCCNC(=N)N)NC(=O)[C@H](CC(=O)O)NC(=O)[C@H](C)N(C)C(=O)[C@H](Cc2cccc(F)c2)NC(=O)[C@H](C)N(C)C(=O)[C@H](Cc2ccc(-c3ccccc3)cc2)NC(=O)[C@H]([C@@H](C)O)NC(=O)[C@H]([C@@H](C)O)NC(=O)[C@H](CO)NC1=O` [Example 1-15, Ac*-F-V-S-T-T-B-(N-Me)A-(3-F)F-(N-Me)A-D-R-P-C*-G-NH2] ({CH2CO}-FVSTT[Bip][NMeA][Phe(3-F)][NMeA]DRPCG-NH2; thioether N-13), the IC50 stood at 12 nM.
`CC(C)[C@@H]1NC(=O)[C@H](Cc2ccccc2)NC(=O)CSC[C@@H](C(=O)NCC(N)=O)NC(=O)[C@@H]2CCCN2C(=O)[C@H](C)NC(=O)[C@H](CCCCN)NC(=O)[C@H](C)N(C)C(=O)[C@H](Cc2ccc(-c3ccccc3)cc2)NC(=O)[C@H](C)N(C)C(=O)[C@H](Cc2ccccc2)NC(=O)[C@H]([C@@H](C)O)NC(=O)[C@H]([C@@H](C)O)NC(=O)[C@H](C)NC1=O` [Example 1-22, Ac*-F-V-A-T-T-F-(N-Me)A-B-(N-Me)A-K-A-P-C*-G-NH2] ({CH2CO}-FVATTF[NMeA][Bip][NMeA]KAPCG-NH2; thioether N-13): the IC50 came out at 12 nM.
